Counter-ions that a name gives are not always drawn.
Biological target: T1, Human CYP8B1 (Homo sapiens, UniProt Q9UNU6)
T1 construct: tissue Xenotech; host or cells: human liver microsomes
T1 sequence (Q9UNU6 1-501): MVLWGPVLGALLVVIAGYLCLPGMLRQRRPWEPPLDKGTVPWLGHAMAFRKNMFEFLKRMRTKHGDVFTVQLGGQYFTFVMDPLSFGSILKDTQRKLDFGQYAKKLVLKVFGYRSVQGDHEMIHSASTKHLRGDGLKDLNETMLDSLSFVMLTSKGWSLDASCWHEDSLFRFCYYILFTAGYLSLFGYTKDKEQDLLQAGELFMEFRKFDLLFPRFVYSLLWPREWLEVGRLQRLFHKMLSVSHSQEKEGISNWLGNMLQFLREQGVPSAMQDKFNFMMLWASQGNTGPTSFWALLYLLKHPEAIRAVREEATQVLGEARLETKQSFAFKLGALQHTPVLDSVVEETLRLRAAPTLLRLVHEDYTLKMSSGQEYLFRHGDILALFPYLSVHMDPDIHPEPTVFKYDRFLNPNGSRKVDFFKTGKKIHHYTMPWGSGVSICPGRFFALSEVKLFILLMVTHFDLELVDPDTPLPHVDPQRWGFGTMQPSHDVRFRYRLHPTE
Experiment: Human Cyp8B1 Liver Microsome Assay
Format: biochemical
Settings: human liver microsomes; substrate 7α-hydroxy-4-cholesten-3-one, NADPH; 30 min pre-incubation, 45 min reaction; RapidFire MS readout
Procedure, shortened: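 Human liver microsomes (65 μg/ml, 0.1 M phosphate pH 7.4) preincubated 30 min at room temperature with inhibitor (1.25% DMSO final), then reacted 45 min with 7α-hydroxy-4-cholesten-3-one and NADPH. 7α,12α-dihydroxy product quantified by RapidFire ESI+ MRM against d7 internal standard; IC50 from four-parameter logistic fit.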

Row | Structure (SMILES) | IC50 [nM]
1 | C[C@@H]1CN(c2c(Cl)cnc3cc(OC(F)(F)F)ccc23)CC[C@@H]1C(=O)N1CCn2c(nnc2C(F)(F)F)C1 [Example 36, {(3S,4S)-1-[3-chloro-7-(trifluoromethoxy)quinolin-4-yl]-3-methylpiperidin-4-yl}[3-(trifluoromethyl)-5,6-dihydro[1,2,4]triazolo[4,3-a]pyrazin-7(8H)-yl]methanone] | 0.35
2 | C[C@@H]1CN(c2ccnc3cc(F)ccc23)CC[C@@H]1C(=O)N1CCn2c(nnc2C(F)(F)F)C1 [Example 22, [(3S,4S)-1-(7-fluoroquinolin-4-yl)-3-methylpiperidin-4-yl][3-(trifluoromethyl)-5,6-dihydro[1,2,4]tria-zolo[4,3-a]pyrazin-7(8H)-yl]methanone] | 19
3 | C[C@@H]1CN(c2ccnc3ccc(F)cc23)CC[C@@H]1C(=O)N1CCn2c(nnc2C(F)(F)F)C1 [Example 14, [(3S,4S)-1-(6-fluoroquinolin-4-yl)-3-methylpiperidin-4-yl][3-(trifluoromethyl)-5,6-dihydro[1,2,4]tria-zolo[4,3-a]pyrazin-7(8H)-yl]methanone] | 52
4 | COc1ccc2c(N3CC[C@H](C(=O)N4CCn5c(nnc5C(F)(F)F)C4)[C@H](C)C3)c(C3CC3)cnc2c1 [Example 34, [(3S,4S)-1-(3-cyclopropyl-7-methoxyquinolin-4-yl)-3-methylpiperidin-4-yl][3-(trifluoromethyl)-5,6-dihydro[1,2,4]triazolo[4,3-a]pyrazin-7(8H)-yl]methanone] | 0.67
5 | C[C@@H]1CN(c2ccnc3nc(C(F)(F)F)ccc23)CC[C@@H]1C(=O)N1CCn2c(nnc2C(F)(F)F)C1 [Example 31, {(3S,4S)-3-methyl-1-[7-(trifluoromethyl)-1,8-naphthyridin-4-yl]piperidin-4-yl}[3-(trifluoromethyl)-5,6-dihydro[1,2,4]tria-zolo[4,3-a]pyrazin-7(8H)-yl]methanone] | 2700
6 | Cc1cc(N2CC[C@H](C(=O)N3CCn4c(nnc4C(F)(F)F)C3)[C@H](C)C2)c2cc(F)ccc2n1 [Example 15, [(3S,4S)-1-(6-fluoro-2-methylquinolin-4-yl)-3-methylpiperidin-4-yl][3-(trifluoromethyl)-5,6-dihydro[1,2,4]tria-zolo[4,3-a]pyrazin-7(8H)-yl]methanone] | 245
7 | C[C@@H]1CN(c2ccnc3cc(C#N)ccc23)CC[C@@H]1C(=O)N1CCn2c(nnc2C(F)(F)F)C1 [Example 24, 4-[(3S,4S)-3-methyl-4-{[3-(trifluoromethyl)-5,6-dihydro[1,2,4]tria-zolo[4,3-a]pyrazin-7(8H)-yl]carbonyl}piper-idin-1-yl]quinoline-7-carbonitrile] | 8.4
8 | C[C@H](O)c1ccc2c(N3CC[C@H](C(=O)N4CCn5c(nnc5C(F)(F)F)C4)[C@H](C)C3)c(Cl)cnc2c1 (single isomer, unassigned) [Example 44a] | 0.34
9 | C[C@@H]1CN(c2ccnc3cc(-c4ccncc4)ccc23)CC[C@@H]1C(=O)N1CCn2c(nnc2C(F)(F)F)C1 [Example 79, ((3S,4S)-3-methyl-1-(7-(pyridin-4-yl)quinolin-4-yl)piperidin-4-yl)(3-(trifluoromethyl)-5,6-dihydro-[1,2,4]triazolo[4,3-a]pyrazin-7(8H)-yl)methanone] | 0.7
10 | C[C@@H]1CN(c2c(Cl)cnc3cc(C(F)(F)F)ccc23)CC[C@@H]1C(=O)N1CCn2c(nnc2C(F)(F)F)C1 [Example 55, ((3S,4S)-1-(3-chloro-7-(trifluoromethyl)quinolin-4-yl)-3-methylpiperidin-4-yl)(3-(trifluoromethyl)-5,6-dihydro-[1,2,4]triazolo[4,3-a]pyrazin-7(8H)-yl)methanone] | 0.2
11 | Cc1coc(-c2ccc3c(N4CC[C@H](C(=O)N5CCn6c(nnc6C(F)(F)F)C5)[C@H](C)C4)ccnc3c2)n1 [Example 75, ((3S,4S)-3-methyl-1-(7-(4-methyloxazol-2-yl)quinolin-4-yl)piperidin-4-yl)(3-(trifluoromethyl)-5,6-dihydro-[1,2,4]triazolo[4,3-a]pyrazin-7(8H)-yl)methanone] | 1.4
12 | C[C@@H]1CN(c2c(Cl)cnc3c2CCN(c2ccccn2)C3)CC[C@@H]1C(=O)N1CCn2c(nnc2C(F)(F)F)C1 [Example 62, ((3S,4S)-1-(3-chloro-7-(pyridin-2-yl)-5,6,7,8-tetrahydro-1,7-naphthyridin-4-yl)-3-methylpiperidin-4-yl)(3-(trifluoromethyl)-5,6-dihydro-[1,2,4]triazolo[4,3-a]pyrazin-7(8H)-yl)methanone] | 0.4
13 | C[C@@H]1CN(c2ccnc3cc(OCc4ccccc4)ccc23)CC[C@@H]1C(=O)N1CCn2c(nnc2C(F)(F)F)C1 [Example 30] | 3.91
14 | C[C@@H]1CN(c2c(Cl)cnc3cc(Br)ccc23)CC[C@@H]1C(=O)N1CCn2c(nnc2C(F)(F)F)C1 [Example 42, [(3S,4S)-1-(7-bromo-3-chloroquinolin-4-yl)-3-methylpiperidin-4-yl][3-(trifluoromethyl)-5,6-dihydro[1,2,4]triazolo[4,3-a]pyrazin-7(81)-yl]methanone] | 0.44
15 | COc1cnc2c(N3CC[C@H](C(=O)N4CCn5c(nnc5C(F)(F)F)C4)[C@H](C)C3)c(Cl)cnc2c1 [Example 8, ((3S,4S)-1-(3-chloro-7-methoxy-1,5-naphthyridin-4-yl)-3-methylpiperidin-4-yl)(3-(trifluoromethyl)-5,6-dihydro-[1,2,4]triazolo[4,3-a]pyrazin-7(8H)-yl)methanone] | 1.2
16 | Cc1cc(N2CC[C@H](C(=O)N3CCn4c(nnc4C(F)(F)F)C3)[C@H](C)C2)c2ccc(F)c(F)c2n1 [Example 18, 7,8-difluoro-2-methyl-4-[(3S,4S)-3-methyl-4-{[3-(trifluoromethyl)-5,6-dihydro[1,2,4]tria-zolo[4,3-a]pyrazin-7(8H)-yl]carbonyl}piper-idin-1-yl]quinolinium trifluoroacetate] | 385
17 | C[C@@H]1CN(c2c(Cl)cnc3c2CCN(CC2CC2)C3)CC[C@@H]1C(=O)N1CCn2c(nnc2C(F)(F)F)C1 [Example 61, ((3S,4S)-1-(3-chloro-7-(cyclopropylmethyl)-5,6,7,8-tetrahydro-1,7-naphthyridin-4-yl)-3-methylpiperidin-4-yl)(3-(trifluoromethyl)-5,6-dihydro-[1,2,4]triazolo[4,3-a]pyrazin-7(8H)-yl)methanone] | 1
18 | C[C@@H]1CN(c2ccnc3cc(OC(F)(F)F)ccc23)CC[C@@H]1C(=O)N1CCn2c(nnc2C(F)(F)F)C1 [Example 29, {(3S,4S)-3-methyl-1-(7-(trifluoromethoxy)quinolin-4-yl]piperidin-4-yl}[3-(trifluoromethyl)-5,6-dihydro[1,2,4]tria-zolo[4,3-a]pyrazin-7(8H)-yl]methanone] | 0.34
19 | C[C@@H]1CN(c2ccnc3cc(C(=O)NCC4CC4)ccc23)CC[C@@H]1C(=O)N1CCn2c(nnc2C(F)(F)F)C1 [Example 67, N-(cyclopropylmethyl)-4-((3 S,4S)-3-methyl-4-(3-(trifluoromethyl)-5,6,7,8-tetrahydro-[1,2,4]triazolo[4,3-a]pyrazine-7-carbonyl)piperidin-1-yl)quinoline-7-carboxamide] | 23.6
20 | Cc1cc(N2CC[C@H](C(=O)N3CCn4c(nnc4C(F)(F)F)C3)[C@H](C)C2)c2cc(F)cc(F)c2n1 [Example 17, [(3S,4S)-1-(6,8-difluoro-2-methylquinolin-4-yl)-3-methylpiperidin-4-yl][3-(trifluoromethyl)-5,6-dihydro[1,2,4]tria-zolo[4,3-a]pyrazin-7(8H)-yl]methanone] | 145
21 | Cc1cc(N2CC[C@H](C(=O)N3CCn4c(nnc4C(F)(F)F)C3)[C@H](C)C2)c2ccc(Cl)cc2n1 [Example 19, 7-chloro-2-methyl-4-[(3S,4S)-3-methyl-4-{[3-(trifluoromethyl)-5,6-dihydro[1,2,4]tria-zolo[4,3-a]pyrazin-7(8H)-yl]carbonyl}piper-idin-1-yl]quinolinium trifluoroacetate] | 107
22 | C[C@@H]1CN(c2c(C(F)F)cnc3c(F)c(Cl)ccc23)CC[C@@H]1C(=O)N1CCn2c(nnc2C(F)(F)F)C1 [Example 7, ((3S,4S)-1-(7-chloro-3-(difluoromethyl)-8-fluoroquinolin-4-yl)-3-methylpiperidin-4-yl)(3-(trifluoromethyl)-5,6-dihydro-[1,2,4]triazolo[4,3-a]pyrazin-7(8H)-yl)methanone] | 0.7
23 | C[C@@H]1CN(c2ccnc3cc(OCC4CC4)ccc23)CC[C@@H]1C(=O)N1CCn2c(nnc2C(F)(F)F)C1 [Example 53, {(3S,4S)-1-[7-(cyclopropylmethoxy)quinolin-4-yl]-3-methylpiperidin-4-yl}[3-(trifluoromethyl)-5,6-dihydro[1,2,4]triazolo[4,3-a]pyrazin-7(8H)-yl]methanone] | 3.6

Source: patent publication US10414775B2 (Merck Sharp & Dohme Corp., priority 2016, dated 2019)
